Experimental data from article PMC10746543, “Design principles for cyclin K molecular glue degraders” (Nature Chemical Biology, 2023).
“And” between values parts separate entries of the source, which are not always exact repeats. Equal entries are not always repeated.

Experiments:
HEK293T cells = test: Drug sensitivity assay (CellTiter-Glo viability) with or without MLN4924 pretreatment; format: cell-based, human; settings: Supplementary Table 2
How it was run: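 Luminescent ATP read-out (CellTiter-Glo) after 3 days of drug exposure, normalised to DMSO controls. Cells were HEK293T–Cas9, pretreated with 100 nM MLN4924 or DMSO for 2 h before drug dispensing.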

CDK12–cyclin K and DDB1 = target: T1, CDK12–cyclin K and DDB1 (Homo sapiens, UniProt Q16531+Q9NYV4, K965R); test: TR-FRET ternary complex formation assay (compound titration); format: binding; settings: raw replicate titration data
T1 construct: His6–CDK12 (a.a. 713–1,052); full-length or beta-propeller B domain deletion (ΔBPB: a.a. 396–705 deleted) constructs of His6–DDB1ΔBPB, StrepII–Avi–DDB1, or His6–Spy–DDB1; made in house; host or cells: Trichoplusia ni High Five insect cells (baculovirus)
How it was run: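 TR-FRET ratio 520/490 nm; 70 μs delay before read to suppress background.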

[1] = system: cyclin K–eGFP degradation reporter; test: Cyclin K reporter stability analysis (dual-color cyclin K–eGFP reporter); format: cell-based, human; settings: Supplementary Table 2; HEK293T cycK-eGFP reporter, 5 h; read-out: Cellular assays DC50
How it was run: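 Readout: flow-cytometric eGFP/mCherry ratio (geometric means, round mCherry+ gate) relative to the average of three DMSO wells. Reporter line was HEK293T–Cas9, treated 5 h with compound.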

T1 sequence (Q9NYV4 713-1052 K965R): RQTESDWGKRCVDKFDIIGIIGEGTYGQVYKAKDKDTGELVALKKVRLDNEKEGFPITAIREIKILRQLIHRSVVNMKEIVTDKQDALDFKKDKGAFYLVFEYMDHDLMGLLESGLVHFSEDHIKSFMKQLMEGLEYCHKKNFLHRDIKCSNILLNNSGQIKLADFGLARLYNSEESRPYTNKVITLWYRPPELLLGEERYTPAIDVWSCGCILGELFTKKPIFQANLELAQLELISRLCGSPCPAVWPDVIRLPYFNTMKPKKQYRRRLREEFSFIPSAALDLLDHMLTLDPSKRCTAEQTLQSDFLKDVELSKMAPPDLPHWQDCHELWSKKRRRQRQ
T1 sequence (O75909 1-267 partner): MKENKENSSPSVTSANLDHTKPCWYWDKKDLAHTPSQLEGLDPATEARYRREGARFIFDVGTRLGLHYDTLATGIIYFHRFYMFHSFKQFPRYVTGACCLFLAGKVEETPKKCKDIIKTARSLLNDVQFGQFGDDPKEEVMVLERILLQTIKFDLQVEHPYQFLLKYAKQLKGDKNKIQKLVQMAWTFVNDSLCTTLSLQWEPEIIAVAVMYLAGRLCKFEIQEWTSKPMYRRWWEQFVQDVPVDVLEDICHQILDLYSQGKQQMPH
T1 sequence (Q16531 whole entry): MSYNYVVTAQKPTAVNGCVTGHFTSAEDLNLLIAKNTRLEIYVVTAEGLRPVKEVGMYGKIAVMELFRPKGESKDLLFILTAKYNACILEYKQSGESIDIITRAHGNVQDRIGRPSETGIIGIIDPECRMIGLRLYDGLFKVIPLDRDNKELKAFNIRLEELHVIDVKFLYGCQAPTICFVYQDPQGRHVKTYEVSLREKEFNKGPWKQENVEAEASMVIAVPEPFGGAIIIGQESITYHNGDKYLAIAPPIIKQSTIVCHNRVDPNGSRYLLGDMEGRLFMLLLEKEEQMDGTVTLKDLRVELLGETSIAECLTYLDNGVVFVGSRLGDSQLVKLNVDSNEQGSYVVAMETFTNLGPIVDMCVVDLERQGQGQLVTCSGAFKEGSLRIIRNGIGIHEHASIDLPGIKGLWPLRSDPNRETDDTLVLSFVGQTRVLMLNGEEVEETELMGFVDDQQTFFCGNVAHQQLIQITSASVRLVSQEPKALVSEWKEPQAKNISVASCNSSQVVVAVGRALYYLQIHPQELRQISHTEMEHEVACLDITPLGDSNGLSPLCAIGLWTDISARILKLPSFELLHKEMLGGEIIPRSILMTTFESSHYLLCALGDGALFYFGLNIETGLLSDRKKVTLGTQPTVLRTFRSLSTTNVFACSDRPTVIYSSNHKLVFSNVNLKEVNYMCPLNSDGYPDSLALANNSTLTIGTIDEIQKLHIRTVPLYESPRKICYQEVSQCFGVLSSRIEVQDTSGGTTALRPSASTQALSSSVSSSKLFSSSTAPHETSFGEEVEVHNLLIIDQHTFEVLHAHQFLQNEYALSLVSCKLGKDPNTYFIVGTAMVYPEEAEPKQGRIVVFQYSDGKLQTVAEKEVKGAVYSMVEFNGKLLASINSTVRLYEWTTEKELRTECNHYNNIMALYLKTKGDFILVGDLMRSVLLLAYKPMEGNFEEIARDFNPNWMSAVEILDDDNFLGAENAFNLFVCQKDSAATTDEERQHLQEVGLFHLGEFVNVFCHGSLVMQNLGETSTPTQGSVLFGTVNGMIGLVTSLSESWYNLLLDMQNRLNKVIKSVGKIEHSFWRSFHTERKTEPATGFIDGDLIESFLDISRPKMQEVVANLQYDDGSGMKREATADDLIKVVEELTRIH

CO[C@@H](C(=O)N1Cc2n[nH]c(NC(=O)c3ccc(N4CCN(C)CC4)cc3)c2C1)c1ccccc1 [Danusertib, reference compound] was tested, and the EC50 (HEK293T cells; Homo sapiens, HEK-293T, HEK293T viability, 72 h, compound alone, read-out: Cellular assays EC50) was > 10 µM, the Toxicity rescue (HEK293T cells; MLN4924-mediated cytotoxicity rescue, 10 µM used where n.d.) was 0% and the “TR-FRET signal at compound concentration 4.68 nM” value (CDK12–cyclin K and DDB1; compound concentration 4.68 nM) was 0.1339 and 0.1541. For the same compound, the “TR-FRET signal at compound concentration 21.6 nM” value (CDK12–cyclin K and DDB1; compound concentration 21.6 nM) was 0.1288 and 0.1496, the “TR-FRET signal at compound concentration 36 nM” value (CDK12–cyclin K and DDB1; compound concentration 36 nM) was 0.1327 and 0.1506 and the “TR-FRET signal at compound concentration 79.2001 nM” value (CDK12–cyclin K and DDB1; compound concentration 79.2001 nM) was 0.1323 and 0.1494. The “TR-FRET signal at compound concentration 158.4 nM” value (CDK12–cyclin K and DDB1; compound concentration 158.4 nM) was 0.1293 and 0.1473, the “TR-FRET signal at compound concentration 309.6 nM” value (CDK12–cyclin K and DDB1; compound concentration 309.6 nM) was 0.1264 and 0.1438 and the “TR-FRET signal at compound concentration 626.401 nM” value (CDK12–cyclin K and DDB1; compound concentration 626.401 nM) was 0.1205 and 0.1382. For the same compound, the “TR-FRET signal at compound concentration 1252.8 nM” value (CDK12–cyclin K and DDB1; compound concentration 1252.8 nM) was 0.1096 and 0.1174, the “TR-FRET signal at compound concentration 2448 nM” value (CDK12–cyclin K and DDB1; compound concentration 2448 nM) was 0.09891 and 0.113 and the “TR-FRET signal at compound concentration 9936.01 nM” value (CDK12–cyclin K and DDB1; compound concentration 9936.01 nM) was 0.07702 and 0.08712. The “TR-FRET signal at compound concentration 20016 nM” value (CDK12–cyclin K and DDB1; compound concentration 20016 nM) was 0.06845 and 0.07789 and the DC50 [1] was > 10 µM.
